Assay results: paper PMC12316308, “Interactions of substrates and phosphinyl containing inhibitors with bacterial and human zinc proteases” (PLOS One, 2025)
“And” between values parts separate entries of the source, which are not always exact repeats. Equal values may be shown once.

Assays:
MMP-12 = test system: MMP-12; set-up: method as in PMID 27996256, PMID 23343195; conditions: cited from earlier work
[1] = target: T1, human MT1-MMP/MMP-14 (catalytic domain) (Homo sapiens, UniProt P50281); test: Enzyme inhibition kinetics, fluorogenic substrate ES001; format: biochemical; conditions: inhibitor 10 μM
T1 construct: human MT1-MMP/MMP-14 (catalytic domain); purchased Calbiochem (San Diego, CA, USA)

Structure (SMILES) | pH dependence of Ki (MMP-12) | vi/v0 (relative enzyme activity with inhibitor), single determinations ([1]; preincubation 15 min) | vi/v0 (relative enzyme activity with inhibitor), single determinations ([1]; preincubation 30 min)
NC(=O)C(CCC(=O)O)NC(=O)C(CCC(=O)O)NC(=O)C(Cc1cc(-c2ccc(-c3cccc(Cl)c3)cc2)no1)CP(=O)(O)c1ccc(Br)cc1 (stereo not drawn) [H-1] | increasing approximately ten times for each unit increase in buffer pH | – | –
NC(=O)C(Cc1c[nH]c2ccccc12)NC(=O)C(CCCc1ccccc1)CP(=O)(O)C(Cc1ccccc1)NC(=O)OCc1ccccc1 (stereo not drawn) [H-2] | – | 0.1646 and 0.1715 and 0.1368 and 0.1654 | 0.1465 and 0.1449 and 0.1477 and 0.1505
